Molecules are shown by their SMILES.

This data set is described as follows: clinical. The following applies: human, in vivo. The text has this:
We claim that these volumes represent the physiological volumes of extracellular fluid compartments that receive the drug with different kinetic rates. Total exclusion of the drug from intracellular fluids is most plausible considering the highly polar and hydrophilic nature of sisomicin. Alternatively, the peripheral compartment could be considered to be interstitial fluid as a different phase of slightly higher drug affinity, where steric hindrance and binding to the negatively charged components of the extracellular matrix retards drug movement. […] The explicit solutions to the two-compartment model as a function of real time provide estimates of drug concentration upon repeated dosing (U.S. patent application Ser. No. 16/992,658). These drug concentrations at momentary distribution equilibrium (teq) can be used to determine the drug's apparent volume of distribution.
Eq. 21, can be used to assess a substance apparent volume of distribution associated with the phase of the central compartment, but only if the central compartment is a single phase. Using eq. 21, Vd,1 was calculated to be equal to 11.78 L. The equilibrium time of intercompartmental drug distribution teq is calculated from eq.
Eur J Clin Pharmacol. 1976; 10: 251-256. […]

`CN[C@@H]1[C@@H](O)[C@@H](O[C@@H]2[C@@H](O)[C@H](O[C@H]3OC(CN)=CC[C@H]3N)[C@@H](N)C[C@H]2N)OC[C@]1(C)O` [sisomicin]: the Vd worked out at 11.8 L.

Usually Vd stands for the apparent volume that relates the amount in the body to the concentration in plasma or blood. A high value points to wide distribution into tissue.
